In patent US11214556B1, “Method of treating colorectal cancer” (King Abdulaziz University, priority 2019, dated 2022):

Assays:
HCT-116 cells [1] = assay: Annexin V/propidium iodide apoptotic cell determination; assay type: cell-based, human; conditions: IC50 concentration
Experimental: Apoptosis was determined by staining cells with Annexin V-fluorescein isothiocyanate (FITC) and counterstaining with propidium iodide (PI) using the Annexin V-FITC/PI apoptosis detection kit (BD Biosciences, San Diego, Calif., USA) according to the manufacturer's instructions. Briefly, 4×10^6 cell/T 75 flask were exposed to the IC50 of tested compound for 24 and 48 h. The cells were collected by trypsinization and 0.5×10^6 cells were washed twice with phosphate-buffered saline (PBS) and stained with 5 μl Annexin V-FITC and 5 μl PI in 1× binding buffer (BD Biosciences, San Jose, Calif., USA) for 15 min at room temperature in the dark. Analyses were performed using FACS Calibur flow cytometer (BD Biosciences, San Jose, Calif., USA).

[2] = system: baby hamster kidney (BHK) cell lines; assay: Cytotoxicity against normal baby hamster kidney cells; assay type: cell-based; conditions: 72 h
Experimental: FIG. 3B is a graph illustrating the cytotoxic effect of 4112 against human colon adenocarcinoma cancer cells (HCT-116, Caco-2 and HT-29) vs. normal baby hamster kidney cells (BHK). All cells were exposed to different concentrations of 4112 for 72 h. The cell viability concentration curves were plotted, and the IC50 were determined. *denotes significance at P<0.001;
Based on the favorable pharmacologic and physicochemical properties of MOS-1512, it was selected as a new lead for the second subset of compounds (MOS-1812 to MOS-5112). The compounds in this series contained variable groups at R^1 and R^2 that were all tested against the three cancer cell lines (HCT-116, Caco-2 and HT-29). […]
The sulforhodamine B (SRB) assays were performed according to Skehan, P.; Storeng, R.; Scudiero, D.; Monks, A.; McMahon, J.; Vistica, D.; Warren, J. T.; Bokesch, H.; Kenney, S.; Boyd, M. R., New colorimetric cytotoxicity assay for anticancer-drug screening. […] Briefly, exponentially growing cells were trypsinized, counted and seeded at the appropriate densities (5000 cells/100 μL/well) into 96-well microtiter plates. […] The protein-bound dye was dissolved in 10 mM Tris base solution for (optical density) OD determination at 510 nm using a SpectraMax plus Microplate Reader (Molecular Devices, CA). […]

HCT-116 cells [3] = assay: Cell cycle analysis by flow cytometry; assay type: cell-based, human; conditions: IC50 concentration, 24 h
Text: The exposure of the cells to 4112 led to a significant increase in the proportion of cells in pre-G1 phase (Up to 9-fold compared to the control). Accumulation of cells in pre-G1 phase, likely as a result of degradation or fragmentation of genetic material indicates a possible role for apoptosis through compound-induced growth inhibition.
The cells were collected by trypsinization, washed with phosphate buffered saline (PBS) and fixed in ice-cold absolute alcohol. Thereafter, cells were stained using Cycletest™ Plus DNA Reagent Kit (BD Biosciences, San Jose, Calif.) according to the manufacturer's instructions. Cell cycle distribution was determined using a FACS Calibur flow cytometer (BD Biosciences, San Jose, Calif.).

HCT-116 cells [4] = assay: ROS accumulation by DCFDA staining; assay type: cell-based, human; conditions: 24 and 48 h, compared to untreated cells
Experimental: The elevation of oxidative stress inside cancer cells, consequent to treatment with 4112, was investigated via monitoring ROS release over time (24 and 48 h). In this test, the 2′,7′-dichlorofluorescin diacetate (DCFDA) dye was used to detect various ROS species and emit green fluorescence.
To determine the effect of the newly synthesized compounds on the cellular redox status, two different free radical sensitive probe dichlorofluorescin diacetate (DCFDA) was used. Cells were cultured on sterile 22 mm^2 cover slips (Harvard Apparatus, MA, USA) in sterile six well plates at a density of 2×10^5 cells/well. […] At the end of the exposure, cells attached to cover slips were washed thrice with PBS and incubated with DCFDA 10 μM for 30 min at 37° C. in the dark. Thereafter, cells were washed thrice with PBS and the cover slips were then mounted on a glass slide with anti-fade mounting medium containing 4′,6′-diamidino-2-phenylindole, dihydrochloride (DAPI) (Sigma-Aldrich, St. Louis, Mo., USA), which was used as counter stain and viewed with an epifluorescence microscope, Leica, DM 5500 B (Leica, Buffalo Grove, Ill., USA) at a magnification of 60×. Data were captured digitally and quantified using the microscope provided software.

Compound: CCCNC(=O)/C(=C/c1c[nH]c2ccccc12)NC(=O)/C=C/c1cccs1 [Compound 4112, (Z)-3-(1H-indol-3-yl)-N-propyl-2-[(E)-3-(thien-2-yl)acrylamidolacry]amide]
- cell population in early apoptosis (HCT-116 cells [1]; after 48 hours): 17.5%
- cell population in late apoptosis (HCT-116 cells [1]; after 48 hours): 4.1%
- viable cells (HCT-116 cells [1]; after 48 hours): 72%
- change in cell viability (HCT-116 cells [1]; at 24 hours): very little change in cell viability
- IC50 [2]: 77.6 ± 6.2 µM
- increase in proportion of cells in pre-G1 phase compared to the control (HCT-116 cells [3]): Up to 9 fold
- accumulation of ROS (HCT-116 cells [4]): causes accumulation of ROS
